Test results reported in patent US6921770B2 (priority 2000, dated 2005).
Like-named read-outs stand apart in the source and are kept apart here.

Test system: rice blast fungi
Format: in vivo, Pyricularia grisea

In the case of `Br.Cn1c(CC(=O)Nc2ccccc2)csc1=Nc1ccc(F)c(Cl)c1` [Compound 43, 2-(3-chloro-4-fluorophenylimino)-3-methyl-4-(N-phenylcarbamoylmethyl)-1,3-thiazol-4-ine hydrobromide], the “Inhibiting Ratio (%) (at 250 ppm)” value was 93%.

For `Br.Cc1ccc(F)c(N=c2scc(CC(=O)Nc3ccccc3)n2C)c1` [Compound 44, 2-(2-fluoro-5-methylphenylimino)-3-methyl-4-(N-phenylcarbamoylmethyl)-1,3-thiazol-4-ine hydrobromide], the “Inhibiting Ratio (%) (at 250 ppm)” value was 95%.

In the case of `Br.Cn1c(CC(=O)Nc2ccccc2)csc1=Nc1cc(C(F)(F)F)cc(C(F)(F)F)c1` [Compound 45, 2-(3,5-ditrifluoromethylphenylimino)-3-methyl-4-(N-phenylcarbamoylmethyl)-1,3-thiazol-4-ine hydrobromide], the “Inhibiting Ratio (%) (at 250 ppm)” value was 93%.

With `Br.Cc1ccc(NC(=O)Cc2csc(=Nc3ccc(C#N)cc3)n2C)cc1` [Compound 46] the “Inhibiting Ratio (%) (at 250 ppm)” value was 100%.

For `Br.Cc1ccc(NC(=O)Cc2csc(=Nc3ccc(OC(F)(F)F)cc3)n2C)cc1` [Compound 47, 2-(4-trifluoromethoxyphenylimino)-3-methyl-4-[N-(4-methylphenyl)carbamoylmethyl]-1,3-thiazol-4-ine hydrobromide], the “Inhibiting Ratio (%) (at 250 ppm)” value was 100%.

`Br.Cc1ccc(NC(=O)Cc2csc(=Nc3cccc(F)c3)n2C)cc1` [Compound 48, 2-(3-fluorophenylimino)-3-methyl-4-[N-(4-methylphenyl)carbamoylmethyl]-1,3-thiazol-4-ine hydrobromide] was tested, and the “Inhibiting Ratio (%) (at 250 ppm)” value was 100%.

For `Br.Cc1ccc(NC(=O)Cc2csc(=Nc3ccc(Cl)cc3Cl)n2C)cc1` [Compound 49, 2-(2,4-dichlorophenylimino)-3-methyl-4-[N-(4-methylphenyl)carbamoylmethyl]-1,3-thiazol-4-ine hydrobromide], the “Inhibiting Ratio (%) (at 250 ppm)” value was 100%.

In the case of `Br.Cc1ccc(NC(=O)Cc2csc(=Nc3ccc(Cl)cc3F)n2C)cc1` [Compound 50, 2-(4-chloro-2-fluorophenylimino)-3-methyl-4-[N-(4-methylphenyl)carbamoylmethyl]-1,3-thiazol-4-ine hydrobromide], the “Inhibiting Ratio (%) (at 250 ppm)” value was 100%.

With `Br.Cc1ccc(NC(=O)Cc2csc(=Nc3ccc(F)c(Cl)c3)n2C)cc1` [Compound 51, 2-(3-chloro-4-fluorophenylimino)-3-methyl-4-[N-(4-methylphenyl)carbamoylmethyl]-1,3-thiazol-4-ine hydrobromide] the “Inhibiting Ratio (%) (at 250 ppm)” value was 99%.

`Br.Cc1ccc(NC(=O)Cc2csc(=Nc3cc(C)ccc3F)n2C)cc1` [Compound 52, 2-(2-fluoro-5-methylphenylimino)-3-methyl-4-[N-(4-methylphenyl)carbamoylmethyl]-1,3-thiazol-4-ine hydrobromide] was tested, and the “Inhibiting Ratio (%) (at 250 ppm)” value was 99%.

In the case of `Br.Cc1ccc(NC(=O)Cc2csc(=Nc3ccc(Cl)c(C(F)(F)F)c3)n2C)cc1` [Compound 53, 2-(4-chloro-3-trifluoromethylphenylimino)-3-methyl-4-[N-(4-methylphenyl)carbamoylmethyl]-1,3-thiazol-4-ine hydrobromide], the “Inhibiting Ratio (%) (at 250 ppm)” value was 99%.

In the case of `Br.Cc1ccc(NC(=O)Cc2csc(=Nc3cc(C(F)(F)F)cc(C(F)(F)F)c3)n2C)cc1` [Compound 54, 2-(3,5-ditrifluoromethylphenylimino)-3-methyl-4-[N-(4-methylphenyl)carbamoylmethyl]-1,3-thiazol-4-ine hydrobromide], the “Inhibiting Ratio (%) (at 250 ppm)” value was 96%.

`Br.Cc1ccc(NC(=O)Cc2csc(=Nc3ccc([N+](=O)[O-])cc3F)n2C)cc1` [Compound 55, 2-(2-fluoro-4-nitrophenylimino)-3-methyl-4-[N-(4-methylphenyl)carbamoylmethyl]-1,3-thiazol-4-ine hydrobromide] was tested, and the “Inhibiting Ratio (%) (at 250 ppm)” value was 96%.

In the case of `Br.CCCCc1ccc(N=c2scc(CC(=O)Nc3cccc(Cl)c3)n2C)cc1` [Compound 56, 2-[4-(n-butyl)phenylimino]-3-methyl-4-[N-(3-chlorophenyl)carbamoylmethyl]-1,3-thiazol-4-ine hydrobromide], the “Inhibiting Ratio (%) (at 250 ppm)” value was 96%.

`Br.Cn1c(CC(=O)Nc2cccc(Cl)c2)csc1=Nc1ccc(C#N)cc1` [Compound 57, 2-(4-cyanophenylimino)-3-methyl-4-[N-(3-chlorophenyl)carbamoylmethyl]-1,3-thiazol-4-ine hydrobromide] was tested, and the “Inhibiting Ratio (%) (at 250 ppm)” value was 96%.

For `Br.Cn1c(CC(=O)Nc2cccc(Cl)c2)csc1=Nc1ccc(OC(F)(F)F)cc1` [Compound 58, 2-(4-trifluoromethoxyphenylimino)-3-methyl-4-[N-(3-chlorophenyl)carbamoylmethyl]-1,3-thiazol-4-ine hydrobromide], the “Inhibiting Ratio (%) (at 250 ppm)” value was 96%.

For `Br.Cn1c(CC(=O)Nc2cccc(Cl)c2)csc1=Nc1cccc(F)c1` [Compound 59, 2-(3-fluorophenylimino)-3-methyl-4-[N-(3-chlorophenyl)carbamoylmethyl]-1,3-thiazoyl-4-ine hydrobromide], the “Inhibiting Ratio (%) (at 250 ppm)” value was 96%.

In the case of `Br.Cc1cc(Cl)ccc1N=c1scc(CC(=O)Nc2cccc(Cl)c2)n1C` [Compound 61, 2-(4-chloro-2-methylphenylimino)-3-methyl-4-[N-(3-chlorophenyl)carbamoylmethyl]-1,3-thiazol-4-ine hydrobromide], the “Inhibiting Ratio (%) (at 250 ppm)” value (hydrobromide) was 100%.

In the case of `Br.Cc1ccc(N=c2scc(CC(=O)Nc3cccc(Cl)c3)n2C)cc1Cl` [Compound 62, 2-(3-chloro-4-methylphenylimino)-3-methyl-4-[N-(3-chlorophenyl)carbamoylmethyl]-1,3-thiazol-4-ine hydrobromide], the “Inhibiting Ratio (%) (at 250 ppm)” value was 100%.

`Br.Cc1cc(Cl)ccc1N=c1scc(CC(=O)Nc2cccc(Cl)c2)n1C` [Compound 63, 2-(4-chloro-2-methylphenylimino)-3-methyl-4-[N-(3-chlorophenyl)carbamoylmethyl]-1,3-thiazol-4-ine hydrobromide] was tested, and the “Inhibiting Ratio (%) (at 250 ppm)” value (hydrobromide) was 96%.

`Br.COc1ccccc1N=c1scc(CC(=O)Nc2cccc(C(F)(F)F)c2)n1C` [Compound 65, 2-(2-methoxyphenylimino)-3-methyl-4-[N-(3-trifluoromethylphenyl)carbamoylmethyl]-1,3-thiazol-4-ine hydrobromide] was tested, and the “Inhibiting Ratio (%) (at 250 ppm)” value was 98%.

In the case of `Br.Cn1c(CC(=O)Nc2cccc(Cl)c2)csc1=Nc1ccc(Cl)cc1F` [Compound 66, 2-(4-chloro-2-fluorophenylimino)-3-methyl-4-[N-(3-chlorophenyl)carbamoylmethyl]-1,3-thiazol-4-ine hydrobromide], the “Inhibiting Ratio (%) (at 250 ppm)” value was 96%.

For `Br.Cc1ccc(N=c2scc(CC(=O)Nc3cccc(Cl)c3)n2C)c(F)c1` [Compound 67, 2-(2-fluoro-4-methylphenylimino)-3-methyl-4-[N-(3-chlorophenyl)carbamoylmethyl]-1,3-thiazol-4-ine hydrobromide], the “Inhibiting Ratio (%) (at 250 ppm)” value was 100%.

With `Br.Cn1c(CC(=O)Nc2cccc(Cl)c2)csc1=Nc1ccc(F)cc1F` [Compound 68, 2-(2,4-difluorophenylimino)-3-methyl-4-[N-(3-chlorophenyl)carbamoylmethyl]-1,3-thiazol-4-ine hydrobromide] the “Inhibiting Ratio (%) (at 250 ppm)” value was 95%.

With `Br.CC(C)Oc1cc(N=c2scc(CC(=O)Nc3ccccc3)n2C)c(F)cc1Cl` [Compound 69, 2-(4-chloro-2-fluoro-5-isoproxyphenylimino)-3-methyl-4-(N-phenylcarbamoylmethyl)-1,3-thiazol-4-ine hydrobromide] the “Inhibiting Ratio (%) (at 250 ppm)” value was 96%.

`Br.CC(C)=CCOc1cc(N=c2scc(CC(=O)Nc3ccccc3)n2C)c(F)cc1Cl` [Compound 70, 2-(4-chloro-2-fluoro-5-(3,3,-dimethylallyloxy)phenylimino)-3-methyl-4-(N-phenylcarbamoylmethyl)-1,3-thiazol-4-ine hydrobromide] was tested, and the “Inhibiting Ratio (%) (at 250 ppm)” value was 96%.

In the case of `COc1ccc(N=c2scc(CC(=O)Nc3ccccc3F)n2C)cc1.Cl` [Compound 78, 2-(4-methoxyphenylimino)-3-methyl-4-[N-(2-fluorophenyl)carbamoylmethyl]-1,3-thiazol-4-ine hydrochloride], the “Inhibiting Ratio (%) (at 250 ppm)” value was 91%.

`Cl.Cn1c(CC(=O)Nc2ccccc2F)csc1=Nc1ccc(OC(F)(F)F)cc1` [Compound 79, 2-(4-trifluoromethoxyphenylimino)-3-methyl-4-[N-(2-fluorophenyl)carbamoylmethyl]-1,3-thiazol-4-ine hydrochloride] was tested, and the “Inhibiting Ratio (%) (at 250 ppm)” value was 90%.

With `Cl.Cn1c(CC(=O)Nc2ccccc2F)csc1=Nc1ccccc1F` [Compound 89, 2-(2-fluorophenylimino)-3-methyl-4-[N-(2-fluorophenyl)carbamoylmethyl]-1,3-thiazol-4-ine hydrochloride] the “Inhibiting Ratio (%) (at 250 ppm)” value was 83%.

For `Cl.Cn1c(CC(=O)Nc2ccccc2F)csc1=Nc1cccc(Cl)c1` [Compound 90, 2-(3-chlorophenylimino)-3-methyl-4-[N-(2-fluoro)phenylcarbamoylmethyl]-1,3-thiazol-4-ine hydrochloride], the “Inhibiting Ratio (%) (at 250 ppm)” value was 91%.

For `Cl.Cn1c(CC(=O)Nc2ccc(Cl)cc2)csc1=Nc1ccc(C(F)(F)F)cc1` [Compound 98, 2-(4-trifluoromethylphenylimino)-3-methyl-4-[N-(4-chlorophenyl)carbamoylmethyl]-1,3-thiazol-4-ine hydrochloride], the “Inhibiting Ratio (%) (at 250 ppm)” value was 96%.

`COc1ccc(NC(=O)Cc2csc(=Nc3cc(Cl)cc(Cl)c3)n2C)cc1.Cl` [Compound 102, 2-(3,5-dichlorophenylimino)-3-methyl-4-[N-(4-methoxyphenyl)carbamoylmethyl]-1,3-thiazol-4-ine hydrochloride] was tested, and the “Inhibiting Ratio (%) (at 250 ppm)” value was 93%.

In the case of `COc1ccc(NC(=O)Cc2csc(=Nc3ccc(Cl)cc3)n2C)cc1.Cl` [Compound 104, 2-(4-chlorophenylimino)-3-methyl-4-[N-(4-methoxyphenyl)carbamoylmethyl]-1,3-thiazol-4-ine hydrochloride], the “Inhibiting Ratio (%) (at 250 ppm)” value was 93%.

For `CC(C)Oc1ccc(N=c2scc(CC(=O)Nc3ccccc3F)n2C)cc1.Cl` [Compound 105, 2-(4-isopropoxyphenylimino)-3-methyl-4-[N-(2-fluorophenyl)carbamoylmethyl]-1,3-thiazol-4-ine hydrochloride], the “Inhibiting Ratio (%) (at 250 ppm)” value was 90%.

`Cl.Cn1c(CC(=O)Nc2ccc(OC(F)(F)F)cc2)csc1=Nc1ccc(OC(F)(F)F)cc1` [Compound 108, 2-(4-trifluoromethoxyphenylimino)-3-methyl-4-[N-(4-trifluoromethoxyphenyl)carbamoylmethyl]-1,3-thiazol-4-ine hydrochloride] was tested, and the “Inhibiting Ratio (%) (at 250 ppm)” value was 91%.
